Consider nine compounds from patent US6417235B2, “Method and use of α-amino-β-mercapto-ethane derivatives as dicarbonyl scavengers for treatment of conditions resulting from protein, lipid, and DNA damage” (University of Kentucky Research Foundation, priority 2000, dated 2002).

The subject of this assay is glycation of histone H1 by ADP-ribose. The assay can be described thus: Screening of inhibitors of nonoxidative advanced glycation: AGE-fluorescence on 96 well-microtiter plate. To be noted: (± SEM, n = 2); for AGE-fluorescence (day 5): complete reaction under air. It counts as biochemical, calf. The protocol:
All operations were carried out at 4° C. Chromatin was isolated from fresh calf thymus by extraction with 0.14 M NaCl, 0.05 M Na2S2O5, as described earlier in Wondrak supra. After repeated extraction with 5% HCl)4 and centrifugation (1500 g), histone H1 was precipitated from the supernatant by addition of TCA (20% final concentration v/v). The histone H1 precipitate was colleted by centrifugation (12,000 g) and deionized water. After extensive dialysis (MW cut-off: 12,000-14,000) against water for 48 h, the sample was lyophilized and the protein was stored at 4° C. SDS-PAGE (12%) was used to analyze the purity of the preparation.
Earlier studies have reported that D-penicillamine inhibits collagen crosslinking and AGE fluorescence caused by sugars (McPherson, J. D., Shilton, B. H., and Walton, D. J. 1988. Role of Fructose in Glycation and Cross-Linking of Proteins. Biochemistry 27, 1901-1907) and reaction of D-penicillamine with aldehyde groups of proteins (Deshmukh, K., and Nimm, M. E. 1969. A Defect in the Intramolecular and Intermolecular Cross-linking of Collagen caused by Penicillamine. J. Biol. Chem. 244, 1787-1795). A number of different penicillamines and penicillamine derivatives were tested to determine the inhibition of AGE-fluorescence on histone H1 at physiological pH. The reaction conditions for the glycation of histone H1 by ADP-ribose mimic physiological conditions to the extent possible. Reaction mixtures contain 1.5 mg/ml histone Hl, 1.0 mM ADP-ribose, 50 mM potassium phosphate buffer, pH 7.4, 37° C. D,L-penicillamine; L-penicillamine; D-penicllamine; D-penicillaminedisulfide and N,S- isopropylidine-D-penicillamine were tested in concentrations of 1,5 and 10 mM. The detected reaction parameter representing the accumulation of protein damage is AGE-fluorescence ((λex=[…]), which is suppressed by the presence of a compound with inhibitory activity. Generation of AGE-type fluorescence (λex=355 nm; λem=405 nm) was monitored over time at 37° C; which is in the range of the broad excitation/emission maxima of AGE compounds. To allow high throughput sample processing on 96 well microtiter plates, the reaction volumes are 300 μl. Fluorescence on the 96-well microtiter plates was measured using an automated microtiter fluorescence reader. Fluorescence of the 1 ml samples of the glycation reaction mixtures was measured using a Hitachi F-200 fluorescence spectophotometer, and prior to measurement the protein sample is dialyzed extensively against water (MW cutoff=[…]), lyophilized and reconstituted in reaction buffer. For inhibitor screening the plate is read on a Fluoroskan II plate reader (Titertek, ICN) at the excitation/emission wavelengths set forth above at a bandwidth of 35 nm.
The following screening scheme is used (see Table 1): AGE-fluorescence is determined at the beginning and after five days of incubation. Test compounds that are inherently fluorescent (designated false negatives) were identified by the initial fluorescence measurement (See Table 1, NADH for example). Since these are compounds of uncertain activity, they are diverted directly to the second stage of the screen. Aminoguanidine, a known glycation inhibitory agent, was used as a positive control for suppression of the increase on AGE-fluorescence. After five days incubation and plate reading, fluorescence quenchers (designated false positives) are excluded by measuring the quenching activity of the test compound by addition of AGE modified protein having known fluorescence activity to one microtiter plate well containing test compound in the complete reaction mixture. For this, AGE-BSA is used as the AGE-type fluorescence standard. This AGE-BSA test excludes false positives compounds that function by fluorescence quenching. If fluorescence quenching occurs the test compound is excluded from further screening. […] The protein is visualized by silver staining of the gel. […]

Turning to `NC(CCS)C(=O)O` (racemic) [D,L-Homocysteine], the “AGE-fluorescence (day 0)” value reads like this: (compound 1 mM) 1.3 (0.0) relative units; (compound 5 mM) 1.2 (0.2) relative units; (compound 10 mM) 1.1 (0.1) relative units. In addition, the “AGE-fluorescence (day 5)” value (compound 1 mM) is given as 16 (1.1) relative units, the “AGE-fluorescence (day 5)” value (compound 5 mM) is 22 (0.1) relative units and the “AGE-fluorescence (day 5)” value (compound 10 mM) is given as 27 (1.7) relative units.
Take `CC(C)(S)C(N)C(=O)O` (racemic) [D,L-Penicillamine]: the “AGE-fluorescence (day 0)” value (compound 1 mM) was 1.1 (0.2) relative units, the “AGE-fluorescence (day 0)” value (compound 5 mM) is recorded as 1.1 (0.1) relative units and the “AGE-fluorescence (day 0)” value (compound 10 mM) was 1.1 (0.1) relative units. The “AGE-fluorescence (day 5)” value (compound 1 mM) is 13 (0.0) relative units, the “AGE-fluorescence (day 5)” value (compound 5 mM) is 2.7 (0.0) relative units and the “AGE-fluorescence (day 5)” value (compound 10 mM) is 1.7 (0.0) relative units.
Turning to `O=C1CC(=O)NC(=S)N1` [2-Thiobarbituric acid], the “AGE-fluorescence (day 0)” value is 1.1 (0.1) relative units (compound 1 mM), 1.2 (0.1) relative units (compound 5 mM) and 1.3 (0.1) relative units (compound 10 mM). The “AGE-fluorescence (day 5)” value is given as 12 (0.4) relative units (compound 1 mM), 5.3 (0.4) relative units (compound 5 mM) and 2.3 (0.0) relative units (compound 10 mM).
Turning to `NCCS` [Cysteamine], the “AGE-fluorescence (day 0)” value was 1.0 (0.1) relative units (compound 1 mM), 1.1 (0.1) relative units (compound 5 mM) and 1.2 (0.2) relative units (compound 10 mM). The “AGE-fluorescence (day 5)” value runs as follows: (compound 1 mM) 10 (0.6) relative units; (compound 5 mM) 9.0 (0.7) relative units; (compound 10 mM) 6.0 (0.3) relative units.
For `N[C@@H](CCC(=O)N[C@@H](CS)C(=O)NCC(=O)O)C(=O)O` [GSH, glutathione], the “AGE-fluorescence (day 0)” value by setting is: (compound 1 mM) 1.3 (0.0) relative units; (compound 5 mM) 1.1 (0.3) relative units; (compound 10 mM) 1.1 (0.0) relative units. The “AGE-fluorescence (day 5)” value reads like this: (compound 1 mM) 19 (0.3) relative units; (compound 5 mM) 17 (0.3) relative units; (compound 10 mM) 14 (0.5) relative units.
In the case of `COC(=O)[C@@H](N)CS` [L-Cys-OMe], the “AGE-fluorescence (day 0)” value by setting is: (compound 1 mM) 1.2 (0.1) relative units; (compound 5 mM) 1.3 (0.1) relative units; (compound 10 mM) 1.2 (0.1) relative units. Besides, the “AGE-fluorescence (day 5)” value (compound 1 mM) is on record as 15 (0.1) relative units, the “AGE-fluorescence (day 5)” value (compound 5 mM) was 12 (0.8) relative units and the “AGE-fluorescence (day 5)” value (compound 10 mM) was 9.0 (0.2) relative units.
`N[C@@H](CS)C(=O)O` [L-Cys]: the “AGE-fluorescence (day 0)” value reads like this: (compound 1 mM) 1.2 (0.1) relative units; (compound 5 mM) 1.1 (0.1) relative units; (compound 10 mM) 1.2 (0.1) relative units. For the same compound, the “AGE-fluorescence (day 5)” value is on record as 14 (0.3) relative units (compound 1 mM), 11 (0.2) relative units (compound 5 mM) and 9.0 (0.2) relative units (compound 10 mM).
For `C[N+](C)(C)[C@@H](Cc1c[nH]c(=S)[nH]1)C(=O)[O-]` [L-Ergothioneine], the “AGE-fluorescence (day 0)” value (compound 1 mM) is recorded as 1.0 (0.1) relative units, the “AGE-fluorescence (day 0)” value (compound 5 mM) is given as 1.2 (0.0) relative units and the “AGE-fluorescence (day 0)” value (compound 10 mM) is 1.2 (0.1) relative units. Besides, the “AGE-fluorescence (day 5)” value (compound 1 mM) is on record as 13 (0.0) relative units, the “AGE-fluorescence (day 5)” value (compound 5 mM) was 9.3 (0.2) relative units and the “AGE-fluorescence (day 5)” value (compound 10 mM) is 7.4 (0.1) relative units.
For the compound `CC(=O)N[C@@H](CS)C(=O)O` [NAC], the “AGE-fluorescence (day 0)” value by setting is: (compound 1 mM) 1.2 (0.2) relative units; (compound 5 mM) 1.0 (0.1) relative units; (compound 10 mM) 1.1 (0.1) relative units. Moreover, the “AGE-fluorescence (day 5)” value by setting is: (compound 1 mM) 11 (0.6) relative units; (compound 5 mM) 10 (0.4) relative units; (compound 10 mM) 9.4 (0.6) relative units.
